Data as given in patent US20250114451A1, “REDUCING POLYSORBATE DEGRADATION IN PROTEIN FO[…] LOW AMOUNTS OF CITRIC ACID” (LONZA LTD, priority 2022, published 2025).

Settings: 0.1 mM, 1 mM, 10 mM, 20 mM citric acid vs 0 mM; Rituximab Protein A eluate 1.4 mg/mL, 0.02% (w/v) PS80, pH 6; 2 weeks and 4 weeks at 40° C.
Description: A formulation buffer containing 25 mM L-His/L-His HCl at pH 6.0, 600 mM sucrose and 0.05% (w/v) PS80 was prepared. The solution was filtered over a 0.22 μm PVDF Durapore® sterile filter.
A second solution of 40 mM citric acid at pH 6.0 was prepared and filtered over a 0.22 μm PVDF Durapore® sterile filter. In addition to the 40 mM citric acid stock solution, dilutions of the 40 mM citric acid solution at a target concentration of 20 mM, 2 mM and 0.2 mM using water were prepared.
Five protein formulation samples were prepared each by spiking 320 μL of the downstream purification sample (Rituximab Protein A eluate, 18 g/L) into 1680 μL of the above prepared formulation buffer in five different particle-free Nalgene bottles. […]
Analyzing polysorbate degradation in protein formulation samples 1.2 mL of each of the protein formulation sample were aliquoted into particle-free Nalgene tubes and placed into a 40° C. stability chamber. The samples were analysed after 2 week and 4 weeks of incubation using HPLC-FMA against a standard curve of intact PS80 in water.
The HPLC-FMA measurement was performed using a high-performance liquid chromatography (HPLC) system (Waters Alliance e2695) equipped with an isocratic pump, fluorescence detector (Waters 2475 FLR Detector), auto sampler and knitted reaction coil 1 mL (Supelco #57410-U). […] Fluorescence was measured at λex=350 nm and λem=420 nm. […]

O=C(O)CC(O)(CC(=O)O)C(=O)O [citric acid, Citric acid monohydrate]
PS80 concentration / polysorbate degradation in protein formulation: effective in reducing polysorbate degradation
